Measurements published in US4520031A, “Method for reducing toxic effects of methyl-glyoxal bis-guanylhydrazone” (priority 1982, dated 1985).
Like-named read-outs stand apart in the source and are kept apart here.

Assays:
Oat Cell = test: Response to weekly MGBG, oat cell; type: in vivo, human; details: 1 evaluable patient
Description: (§1) During the course of the clinical experiments, MGBG was administered to patients in approximately weekly doses ranging from 250 to 1000 mg per square meter.
(§2) Pre-treatment minimum evaluation included chest roentgenogram, liver and renal function tests, complete blood count with differential and platelet count and serum glucose. Pre-treatment performance status was recorded for each patient in accordance with SWOG criteria.
(§3) This intravenous infusion is administered to the patient over a period of time not less than 30 minutes. Accordingly, an approximation of the patient's surface area in square meters is calculated using a height and weight to surface area nomogram (listed in Documenta Geigy, Scientific Tables (1970) p. 537) and this factor is applied in determining the appropriate amount of MGBG salt to be added to the infusion solution. […] In the absence of toxicity, subsequent doses of MGBG are increased by 100 mg/m^2 over the previous week's dose. If patients experience moderate or severe reversible toxicity, the dose is reduced by 100 mg/m^2 relative to the previous week's dose. No change in dosage strength is made for mild toxicity.

[1] = over three weeks, 30240 min; cited from earlier work
[2] = cited from earlier work; for Penile inflammation: % of male population
Hepatoma = test: Response to weekly MGBG, hepatoma; type: in vivo, human; details: 1 evaluable patient
Description: as §1, §2, §3

[3] = tested on: acute myelocytic leukemia; details: cited from earlier work
[4] = some peculiar to certain animal species; cited from earlier work
polyamine synthesis = details: in vitro; cited from earlier work
Pancreas = test: Response to weekly MGBG, pancreas; type: in vivo, human; details: 5 evaluable patients
Description: as §1, §2, §3

DNA synthesis = details: reversed by exogenous spermidine; cited from earlier work
[5] = tested on: advanced malignant disease; test: Response to weekly MGBG, all diagnoses (Table I); type: in vivo, human
Description: as §1, §2, §3

[6] = cited from earlier work
Prostate = test: Response to weekly MGBG, prostate; type: in vivo, human; details: 6 evaluable patients
Description: as §1, §2, §3

protein synthesis = details: in vitro; cited from earlier work
[7] = Group I, less than 100 mg/m^2/day
[8] = Group II, 100 to 125 mg/m^2/day
[9] = Group III, 126 to 160 mg/m^2/day

CC(C=NNC(=N)N)=NNC(=N)N [MGBG, 1,1'-[(methylethanediylidene)dinitrilo] diguanidine]
IMP (Improvement noted) (Oat Cell): 1 | administered intravenous dose excreted in the feces [1]: less than 20% | administered intravenous dose excreted in the urine [1]: 50% | Acroerythema (number of patients) [2, 7]: 0 patients | Diarrhea [2, 7]: 40% | Diarrhea (number of patients) [2, 7]: 4 patients | Died during treatment [2, 7]: 42% | Died during treatment (number of patients) [2, 7]: 5 patients | Erythema Nodosum [2, 7]: 10% | Erythema Nodosum (number of patients) [2, 7]: 1 patients | Mucosal involvement [2, 7]: 80% | Mucosal involvement (number of patients) [2, 7]: 8 patients | Penile inflammation (number of patients) [2, 7]: 0 patients | Vasculitis [2, 7]: 40% | Vasculitis (number of patients) [2, 7]: 4 patients | Weight Loss (Median %) [2, 7]: 0% | Penile inflammation [2, 8]: 25% | Acroerythema [2, 8]: 17% | Acroerythema (number of patients) [2, 8]: 4 patients | Diarrhea [2, 8]: 41% | Diarrhea (number of patients) [2, 8]: 6 patients | Died during treatment [2, 8]: 62% | Died during treatment (number of patients) [2, 8]: 10 patients | Erythema Nodosum [2, 8]: 9% | Erythema Nodosum (number of patients) [2, 8]: 2 patients | Mucosal involvement [2, 8]: 98% | Mucosal involvement (number of patients) [2, 8]: 15 patients | Penile inflammation (number of patients) [2, 8]: 3 patients | Vasculitis [2, 8]: 25% | Vasculitis (number of patients) [2, 8]: 5 patients | Weight Loss (Median %) [2, 8]: 6% | Penile inflammation [2, 9]: 23% | Acroerythema [2, 9]: 17% | Acroerythema (number of patients) [2, 9]: 6 patients | Diarrhea [2, 9]: 42% | Diarrhea (number of patients) [2, 9]: 15 patients | Died during treatment [2, 9]: 30% | Died during treatment (number of patients) [2, 9]: 11 patients | Erythema Nodosum [2, 9]: 12% | Erythema Nodosum (number of patients) [2, 9]: 3 patients | Mucosal involvement [2, 9]: 91% | Mucosal involvement (number of patients) [2, 9]: 31 patients | Penile inflammation (number of patients) [2, 9]: 4 patients | Vasculitis [2, 9]: 25% | Vasculitis (number of patients) [2, 9]: 8 patients | Weight Loss (Median %) [2, 9]: 10% | Acroerythema ([2]; Group IV, over 160 mg/m^2/day): 20% | Acroerythema (number of patients) ([2]; Group IV, over 160 mg/m^2/day): 2 patients | Diarrhea ([2]; Group IV, over 160 mg/m^2/day): 20% | Diarrhea (number of patients) ([2]; Group IV, over 160 mg/m^2/day): 2 patients | Died during treatment ([2]; Group IV, over 160 mg/m^2/day): 83% | Died during treatment (number of patients) ([2]; Group IV, over 160 mg/m^2/day): 10 patients | Erythema Nodosum (number of patients) ([2]; Group IV, over 160 mg/m^2/day): 0 patients | Mucosal involvement ([2]; Group IV, over 160 mg/m^2/day): 100% | Mucosal involvement (number of patients) ([2]; Group IV, over 160 mg/m^2/day): 10 patients | Penile inflammation (number of patients) ([2]; Group IV, over 160 mg/m^2/day): 0 patients | Vasculitis ([2]; Group IV, over 160 mg/m^2/day): 20% | Vasculitis (number of patients) ([2]; Group IV, over 160 mg/m^2/day): 2 patients | Weight Loss (Median %) ([2]; Group IV, over 160 mg/m^2/day): 5% | incidence of toxicity under other schedules ([2]; continuous 24-hour infusion, very high initial dose then lower maintenance doses, versus daily dosing): neither of these regimens altered the incidence of associated toxicity | No Response (Hepatoma): 1 | remission rate (complete remissions) ([3]; average daily parenteral dose of 126 to 160 mg/m^2, Levin et al.): 45% | activity in acute myelocytic leukemia ([3]; daily dosing schedule): major activity | median increase in survival ([3]; from 2.5 months, compared to patients with myeloblastic leukemia treated with 6-mercaptopurine): 6.5 months | toxicological effects observed [4]: gastrointestinal toxicity, delayed and fatal hypoglycemia, hepatic and renal damage, bone marrow depression, diarrhea and phlebitis | intermediate concentrations acting selectively on all polyamine synthesis (polyamine synthesis): 0.6 to 2.4 µg/mL | CR + PR (Pancreas): 2 | No Response (Pancreas): 3 | PR (Partial response) (Pancreas): 2 | MGBG-mediated depression of DNA synthesis, associated changes (DNA synthesis): spermidine depletion and putrescine accumulation | biologic effect at 250 mg/m^2 ([5]; 12 patients, 250 mg/m^2): no apparent biologic effect | response at 250 mg/m^2 weekly ([5]; first twelve patients, 250 mg/m^2 weekly): no response | CR (Complete response), total ([5]; weekly, 65 evaluable patients): 2 | CR + PR, total ([5]; weekly, 65 evaluable patients): 11 | IMP (Improvement noted), total ([5]; weekly, 65 evaluable patients): 9 | No Response, total ([5]; weekly, 65 evaluable patients): 45 | PR (Partial response), total ([5]; weekly, 65 evaluable patients): 9 | antineoplastic activity in solid tumors ([5]; weekly, colon, esophageal, renal cell, prostate, and breast carcinoma): effective | Days to first Toxicity ([6]; patient 1, 230 mg/m^2/day): 16 days | Response ([6]; patient 1, 230 mg/m^2/day): None | Days to first Toxicity ([6]; patient 2, 340 mg/m^2/day): 7 days | Response ([6]; patient 2, 340 mg/m^2/day): None | Days to first Toxicity ([6]; patient 3, 256 mg/m^2/day): 9 days | Response ([6]; patient 3, 256 mg/m^2/day): Partial | Days to first Toxicity ([6]; patient 4, 264 mg/m^2/day): 7 days | Response ([6]; patient 4, 264 mg/m^2/day): Complete | Days to first Toxicity ([6]; patient 5, 252 mg/m^2/day): 10 days | Response ([6]; patient 5, 252 mg/m^2/day): Complete | Days to first Toxicity ([6]; patient 6, 156 mg/m^2/day): 10 days | Response ([6]; patient 6, 156 mg/m^2/day): Complete | Days to first Toxicity ([6]; patient 7, 194 mg/m^2/day): 6 days | Response ([6]; patient 7, 194 mg/m^2/day): Complete | Days to first Toxicity ([6]; patient 8, 194 mg/m^2/day): 7 days | Response ([6]; patient 8, 194 mg/m^2/day): Complete | Days to first Toxicity ([6]; patient 9, 150 mg/m^2/day): 23 days | Response ([6]; patient 9, 150 mg/m^2/day): Partial | Toxic Manifestation ([6]; patient 9, 150 mg/m^2/day): None | Days to first Toxicity ([6]; patient 10, 150 mg/m^2/day): 24 days | Response ([6]; patient 10, 150 mg/m^2/day): Complete | Toxic Manifestation ([6]; patient 10, 150 mg/m^2/day): None | Days to first Toxicity ([6]; patient 11, 150 mg/m^2/day): 15 days | Response ([6]; patient 11, 150 mg/m^2/day): Complete | Toxic Manifestation ([6]; patient 11, 150 mg/m^2/day): None | Days to first Toxicity ([6]; patient 12, 150 mg/m^2/day): 13 days | Response ([6]; patient 12, 150 mg/m^2/day): Complete | Days to first Toxicity ([6]; patient 13, 150 mg/m^2/day): 13 days | Response ([6]; patient 13, 150 mg/m^2/day): Complete | Toxic Manifestation ([6]; patient 13, 150 mg/m^2/day): None | IMP (Improvement noted) (Prostate): 1 | No Response (Prostate): 5 | concentration with direct toxic effects, including inhibition of protein synthesis (protein synthesis): ≥ 30000 ng/mL
